This passage reports Kd and IC50 results from patent US9938261B2, “Heterocyclic compounds and methods of use thereof” (AMBIT BIOSCIENCES CORPORATION, priority 2011, dated 2018).

One assay concerns the target T1, PDGFRβ (Homo sapiens, UniProt P09619).
T1 construct: made in house
Briefly: Competition binding assay, PDGFRβ Kd. As for the experimental part:
(§1) Competition binding assays used herein were developed, validated and performed as described in Fabian et al., Nature Biotechnology 2005, 23, 329-336. Kinases were produced as fusions to T7 phage (See, Fabian et al. or WO04/015142) or alternatively, the kinases were expressed in HEK-293 cells and subsequently tagged with DNA for PCR detection (See, WO08/005310). For the binding assays, streptavidin-coated magnetic beads were treated with biotinylated affinity ligands for 30 min at room temperature to generate affinity resins. The liganded beads were blocked with excess biotin and washed with blocking buffer (SeaBlock (Pierce), 1% BSA, 0.05% Tween 20, 1 mM DTT) to remove unbound ligand and to reduce non-specific binding. Binding reactions were assembled by combining kinase, liganded affinity beads, and test compounds in 1× binding buffer (20% SeaBlock, 0.17×PBS, 0.05% Tween 20, 6 mM DTT). Test compounds were prepared as 100× stocks in DMSO and diluted into the aqueous environment. Kds were determined using an eleven point threefold serial dilutions. DMSO or control compounds were was added to control assays lacking a test compound. Primary screen assays were performed in polypropylene 384-well plates in a final volume of 20-40 μL, while Kd determinations were performed in polystyrene 96-well plates in a final volume of 135 μL. The assay plates were incubated at room temperature with shaking for 1 hour to allow the binding reactions to reach equilibrium, and the affinity beads were washed extensively with wash buffer (1×PBS, 0.05% Tween 20) to remove unbound protein. The beads were then resuspended in elution buffer (1×PBS, 0.05% Tween […] non-biotinylated affinity ligand) and incubated at room temperature with shaking for 30 min. The kinase concentration in the eluates was measured by quantitative PCR.

A further assay concerns the target T2, KIT (Homo sapiens, UniProt P10721).
T2 construct: made in house
Briefly: Competition binding assay, KIT Kd. As for the experimental part: as §1

Assay [1] concerns the target T3, CSF1R (Homo sapiens, UniProt P07333). Briefly: Competition binding assay, CSF1R Kd. Set-up: made in house. On the procedure:
as §1

In assay [2] the target is T3, CSF1R. Briefly: HEK293 CSF1R phosphorylation MSD assay. It counts as cell-based. Further details: expressed in transfected cells; host or cells: HEK293. The note with it: 2 h compound, human M-CSF 50 ng/mL for 5 min; read-out: HEK293 pCSF1R M-CSF MSD:IC50. On the procedure:
The compounds disclosed herein were tested in a CSF1R phosphorylation assay to determine their cellular potency against CSF1R. A HEK293 cell line expressing CSF1R fused to FK506 binding protein (FKBP) as a molecular tag was generated. Inhibition of CSF1R kinase activity will prevent ligand-stimulated autophosphorylation of the CSF1R-FKBP in intact cells. Subsequent cell lysates are assayed in a sandwich ELISA employing the electrochemiluminescent Meso Scale Discovery (MSD) technology for the presence of the phosphorylated (p)CSF1R-FKBP. This assay determines the potency of compounds as CSF1R inhibitors by measuring the reduction in the amount of pCSF1R with increasing doses of compounds added to the cells prior to M-CSF stimulation.
On day one of the experiment, HEK293-CSF1R-FKPB cells, maintained in DMEM, with L-glutamine (Mediatech), 10% FBS, and 100 units/mL Penicillin/Streptomycin, were seeded at 50,000 cell/well in a volume of 100 μL per well in 96-well Cell Bind plates (Costar). The cells were cultured overnight at 37° C. under 5% CO2. To prepare the plates used in the MSD assay, a 330 nM biotin-FK506 (in TBS pH 7.2) solution was added at 30 μL per well to streptavidin-coated 96-well plates (MSD), and incubated overnight at room temperature, shaking at 500 rpm on an orbital shaker.
On day two, compounds diluted in DMSO were added to the cells in duplicate plates at 9 different concentrations with half-log intervals, plus DMSO only control, alongside a reference compound serving as a positive control. Final DMSO concentration was 0.5% in a volume of 200 μL per well. The compounds were allowed to incubate with the cells for 2 h at 37° C. under 5% CO2. At the end of the incubation, human M-CSF (R&D Systems) was added for 5 min to a final concentration of 50 ng/mL to stimulate CSF1R phosphorylation. Cells were lysed for 20 min, and the lysates were applied to the washed, FK506-coated MSD plates, and incubated overnight at 4° C. shaking at 500 rpm.
On day three, the MSD plates were washed, and the captured CSF1R-FKBP was assayed sequentially for phosphorylation using mouse anti-phosphotyrosine antibody (Millipore) and Sulfo-TAG goat anti-mouse IgG antibody (MSD), and detected on a Sector Imager 6000 instrument (MSD).
A single IC50 value for each compound was determined by averaging the IC50s of the duplicates calculated using Igor Pro 6 software, and represents the compound concentration that achieves a 50% inhibition of ligand-induced CSF1R phosphorylation compared to DMSO control.

A further assay deals with T4, FLT3 (Homo sapiens, UniProt P36888).
T4 construct: made in house
T4 sequence (P36888 27-993): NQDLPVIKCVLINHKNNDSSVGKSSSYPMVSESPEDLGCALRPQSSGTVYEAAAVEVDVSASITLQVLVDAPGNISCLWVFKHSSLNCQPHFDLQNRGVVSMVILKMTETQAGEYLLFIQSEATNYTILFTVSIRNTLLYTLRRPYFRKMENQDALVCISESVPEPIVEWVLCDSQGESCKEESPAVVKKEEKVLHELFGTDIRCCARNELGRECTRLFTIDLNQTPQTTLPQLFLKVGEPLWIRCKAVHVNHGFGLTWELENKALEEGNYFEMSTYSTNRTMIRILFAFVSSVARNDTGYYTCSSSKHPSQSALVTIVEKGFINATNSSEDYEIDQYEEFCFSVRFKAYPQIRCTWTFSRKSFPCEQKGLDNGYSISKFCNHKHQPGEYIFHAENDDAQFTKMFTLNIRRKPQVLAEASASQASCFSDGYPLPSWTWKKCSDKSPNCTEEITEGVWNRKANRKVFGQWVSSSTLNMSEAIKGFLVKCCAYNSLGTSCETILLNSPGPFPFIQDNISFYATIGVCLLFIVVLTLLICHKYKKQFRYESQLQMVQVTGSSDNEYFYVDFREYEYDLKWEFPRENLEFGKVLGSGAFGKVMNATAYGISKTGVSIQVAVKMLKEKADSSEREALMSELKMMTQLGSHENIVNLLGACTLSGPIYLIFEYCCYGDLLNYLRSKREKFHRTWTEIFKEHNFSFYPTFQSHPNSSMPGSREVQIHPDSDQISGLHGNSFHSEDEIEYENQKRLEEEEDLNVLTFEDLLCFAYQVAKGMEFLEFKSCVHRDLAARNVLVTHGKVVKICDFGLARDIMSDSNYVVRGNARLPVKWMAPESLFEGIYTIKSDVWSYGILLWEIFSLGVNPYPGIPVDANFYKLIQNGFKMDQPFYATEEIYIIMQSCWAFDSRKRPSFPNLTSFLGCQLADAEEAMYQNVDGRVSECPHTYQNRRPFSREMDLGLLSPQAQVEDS
Briefly: Competition binding assay, FLT3 Kd. On the procedure: as §1

In another assay the test system is M-NFS-60 cells. Briefly: M-NFS-60 cell proliferation assay (Alamar Blue). The assay is classed as cell-based, mouse. The note with it: Mus musculus; 72 hours incubation, M-CSF 20 ng/mL; read-out: CSF1R M-NFS-60 CTB:IC50. As for the experimental part: The compounds disclosed herein were tested in an M-NFS-60 cell proliferation assay to determine their cellular potency against CSF1R. M-NFS-60s are mouse monocytic cells that depend on the binding of the ligand M-CSF to its receptor, CSF1R, to proliferate. Inhibition of CSF1R kinase activity will cause reduced growth and/or cell death. This assay assesses the potency of compounds as CSF1R inhibitors by measuring the reduction of Alamar Blue reagent by viable cells.
On day one of the experiment, M-NFS-60 cells were maintained in RPMI complete medium (Omega Scientific) plus 10% FBS supplemented with 20 ng/mL of M-CSF (R&D Systems). 96-well TC-treated, flat bottom plates were seeded at 10,000 cell/well at a volume of 100 μL per well. The cells were cultured overnight at 37° C. under 5% CO2.
On day two, compounds were added to the cells at 9 different concentrations, with half-log intervals alongside a control reference compound serving as a positive control. Final DMSO concentration was kept at 0.5% for a final volume of 200 μL. The compounds were allowed to incubate with the cells for 72 hours at 37° C. under 5% CO2.
On day five of the experiment, 40 μl of Alamar Blue reagent was added to each well and allowed to incubate for 3 hours. Alamar Blue fluorescence was read using SoftMax Pro software at 560 nm (excitation) and 590 nm (emission). IC50s were generated as an average of duplicates and represents the concentration of test compound that achieves 50% inhibition of cellular proliferation compared to control.
On the technique in general: The colour change of resazurin is a common sign of viable cells or microbes.

T1 sequence (P09619 33-1106): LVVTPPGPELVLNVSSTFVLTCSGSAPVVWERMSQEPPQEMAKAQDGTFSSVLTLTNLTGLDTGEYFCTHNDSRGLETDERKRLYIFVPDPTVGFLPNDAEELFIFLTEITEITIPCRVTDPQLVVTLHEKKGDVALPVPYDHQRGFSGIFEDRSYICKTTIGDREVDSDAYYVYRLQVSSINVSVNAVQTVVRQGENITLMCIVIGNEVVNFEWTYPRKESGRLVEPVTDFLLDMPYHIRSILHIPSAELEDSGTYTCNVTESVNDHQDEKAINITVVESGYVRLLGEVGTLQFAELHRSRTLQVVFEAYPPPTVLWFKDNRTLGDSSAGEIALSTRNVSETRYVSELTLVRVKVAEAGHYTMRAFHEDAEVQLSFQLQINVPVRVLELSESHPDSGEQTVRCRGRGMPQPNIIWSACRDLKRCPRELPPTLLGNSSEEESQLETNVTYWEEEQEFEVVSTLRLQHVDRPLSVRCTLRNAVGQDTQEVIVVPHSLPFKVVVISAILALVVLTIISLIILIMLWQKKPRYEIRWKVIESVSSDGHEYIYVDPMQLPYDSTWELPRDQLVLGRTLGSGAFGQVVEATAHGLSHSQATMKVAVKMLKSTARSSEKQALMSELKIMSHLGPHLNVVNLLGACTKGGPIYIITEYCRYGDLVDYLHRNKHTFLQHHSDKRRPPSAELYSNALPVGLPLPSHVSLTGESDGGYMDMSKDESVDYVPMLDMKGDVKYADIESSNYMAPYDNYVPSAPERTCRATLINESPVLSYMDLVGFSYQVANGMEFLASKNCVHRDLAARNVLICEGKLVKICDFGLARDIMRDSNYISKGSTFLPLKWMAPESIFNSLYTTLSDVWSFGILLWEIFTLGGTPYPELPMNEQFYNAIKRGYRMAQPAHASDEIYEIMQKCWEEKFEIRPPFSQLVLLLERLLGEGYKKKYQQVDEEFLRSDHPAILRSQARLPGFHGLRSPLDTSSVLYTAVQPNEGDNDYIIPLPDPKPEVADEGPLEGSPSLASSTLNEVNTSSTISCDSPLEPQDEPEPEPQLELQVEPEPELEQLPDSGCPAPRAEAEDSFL
T2 sequence (P10721 26-976): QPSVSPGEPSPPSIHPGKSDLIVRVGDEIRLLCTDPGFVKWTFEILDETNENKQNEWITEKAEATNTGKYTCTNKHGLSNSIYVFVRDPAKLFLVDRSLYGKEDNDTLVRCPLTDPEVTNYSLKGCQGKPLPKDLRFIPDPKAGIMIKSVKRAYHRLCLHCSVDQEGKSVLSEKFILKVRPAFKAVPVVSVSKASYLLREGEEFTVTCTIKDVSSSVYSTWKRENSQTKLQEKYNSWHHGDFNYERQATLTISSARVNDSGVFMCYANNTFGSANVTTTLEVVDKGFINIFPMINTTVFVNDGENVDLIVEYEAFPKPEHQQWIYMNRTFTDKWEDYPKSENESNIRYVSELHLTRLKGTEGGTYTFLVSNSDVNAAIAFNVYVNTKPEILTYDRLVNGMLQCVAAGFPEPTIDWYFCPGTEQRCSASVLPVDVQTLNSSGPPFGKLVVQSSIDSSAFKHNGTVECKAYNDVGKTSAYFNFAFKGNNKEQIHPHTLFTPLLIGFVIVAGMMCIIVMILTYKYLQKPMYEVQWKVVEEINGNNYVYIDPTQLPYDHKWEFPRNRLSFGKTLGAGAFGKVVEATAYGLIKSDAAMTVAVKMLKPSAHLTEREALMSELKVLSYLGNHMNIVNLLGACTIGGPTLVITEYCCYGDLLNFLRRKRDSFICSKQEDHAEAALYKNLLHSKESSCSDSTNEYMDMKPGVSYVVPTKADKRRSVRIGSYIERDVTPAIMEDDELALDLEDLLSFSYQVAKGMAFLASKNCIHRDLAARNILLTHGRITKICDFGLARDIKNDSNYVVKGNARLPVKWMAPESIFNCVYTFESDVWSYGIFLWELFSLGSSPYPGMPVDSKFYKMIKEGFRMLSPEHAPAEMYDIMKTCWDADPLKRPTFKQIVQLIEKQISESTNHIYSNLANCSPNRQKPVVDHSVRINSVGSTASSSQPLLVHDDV
T3 sequence (P07333 20-972): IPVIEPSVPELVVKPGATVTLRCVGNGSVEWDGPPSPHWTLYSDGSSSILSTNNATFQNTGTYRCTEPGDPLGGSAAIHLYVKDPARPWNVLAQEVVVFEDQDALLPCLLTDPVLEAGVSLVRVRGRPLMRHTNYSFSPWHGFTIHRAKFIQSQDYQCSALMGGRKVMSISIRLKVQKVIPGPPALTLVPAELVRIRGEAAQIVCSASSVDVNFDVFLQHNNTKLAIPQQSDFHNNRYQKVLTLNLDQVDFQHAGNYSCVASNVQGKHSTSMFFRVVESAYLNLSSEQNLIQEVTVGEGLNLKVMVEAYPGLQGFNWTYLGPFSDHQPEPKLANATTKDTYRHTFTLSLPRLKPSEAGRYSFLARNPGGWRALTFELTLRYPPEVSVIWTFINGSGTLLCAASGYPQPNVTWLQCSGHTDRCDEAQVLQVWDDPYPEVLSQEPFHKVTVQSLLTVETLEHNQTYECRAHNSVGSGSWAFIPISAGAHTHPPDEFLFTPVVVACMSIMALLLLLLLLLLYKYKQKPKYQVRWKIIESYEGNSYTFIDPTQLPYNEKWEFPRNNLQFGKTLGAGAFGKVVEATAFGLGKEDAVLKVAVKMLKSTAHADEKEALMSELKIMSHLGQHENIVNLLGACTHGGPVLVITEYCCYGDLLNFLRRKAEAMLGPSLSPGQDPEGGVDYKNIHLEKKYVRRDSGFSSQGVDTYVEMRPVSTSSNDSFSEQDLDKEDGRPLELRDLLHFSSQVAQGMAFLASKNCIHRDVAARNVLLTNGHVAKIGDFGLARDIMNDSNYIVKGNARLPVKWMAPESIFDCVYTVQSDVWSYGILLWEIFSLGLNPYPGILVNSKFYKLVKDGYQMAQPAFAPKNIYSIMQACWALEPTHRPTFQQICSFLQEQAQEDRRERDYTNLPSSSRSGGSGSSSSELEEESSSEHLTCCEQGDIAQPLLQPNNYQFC

The term Kd denotes the concentration at which binding is half-saturated. A lower Kd goes with a tighter complex. Usually IC50 stands for the concentration that gives 50% inhibition. Turning to `COc1cc2ncn(Cc3ccc4nc(NC[C@H]5CCCO5)sc4c3)c2cc1OC` [Example 8, (R)-6-((5,6-dimethoxy-1H-benzo[d]imidazol-1-yl)methyl)-N-((tetrahydrofuran-2-yl)methyl)benzo[d]thiazol-2-amine], the Kd on PDGFRβ was in the range of 500 to 2000 nM; at KIT, 500 to 2000 nM; at CSF1R [1] it was 5 to 20 nM; on FLT3, 1000 to 5000 nM. Further, the IC50 is 200 to 500 nM on CSF1R [2] and above 1500 nM with M-NFS-60 cells.
For `COc1cc2ncn(Cc3ccc4nc(NCc5ccccn5)sc4c3)c2cc1OC` [Example 9, 6-((5,6-dimethoxy-1H-benzo[d]imidazol-1-yl)methyl)-N-(pyridin-2-ylmethyl)benzo[d]thiazol-2-amine], the Kd at PDGFRβ lay within 500 to 2000 nM; on KIT, 500 to 2000 nM; at CSF1R [1] it was 20 to 50 nM; on FLT3 it was 1000 to 5000 nM. Moreover, the IC50 on CSF1R [2] is 200 to 500 nM; in the assay with M-NFS-60 cells, above 1500 nM.
Turning to `COc1cc2ncn(Cc3ccc4nc(N[C@@H]5c6ccccc6C[C@@H]5O)sc4c3)c2cc1OC` [Example 10, (1R,2S)-1-((6-((5,6-dimethoxy-1H-benzo[d]imidazol-1-yl)methyl)benzo[d]thiazol-2-yl)amino)-2,3-dihydro-1H-inden-2-ol], the Kd lay in the range of 50 to 500 nM on PDGFRβ, 500 to 2000 nM at KIT, 5 to 20 nM on CSF1R [1] and 1000 to 5000 nM on FLT3. Also, the IC50 on CSF1R [2] fell in the range of 200 to 500 nM; in the assay with M-NFS-60 cells, 400 to 1500 nM.
In the case of `COc1cc2ncn(Cc3ccc4nc(N[C@H]5CCc6ccccc65)sc4c3)c2cc1OC` [Example 11, (S)—N-(2,3-dihydro-1H-inden-1-yl)-6-((5,6-dimethoxy-1H-benzo[d]imidazol-1-yl)methyl)benzo[d]thiazol-2-amine], the Kd was 50 to 500 nM at PDGFRβ, 100 to 500 nM on KIT, 5 to 20 nM on CSF1R [1] and 200 to 1000 nM at FLT3. Moreover, the IC50 at CSF1R [2] was in the range of 200 to 500 nM; in the assay on M-NFS-60 cells it was 400 to 1500 nM.
With `COC(c1ccc2nc(N[C@@H]3CCCC[C@H]3O)sc2c1)c1c[nH]c2ncccc12` (stereo partly drawn) [Example 12, (1R,2R)-2-((6-(methoxy(1H-pyrrolo[2,3-b]pyridin-3-yl)methyl)benzo[d]thiazol-2-yl)amino)cyclohexanol], the Kd at PDGFRβ is above 2000 nM; on KIT, above 2000 nM; on CSF1R [1], above 50 nM; at FLT3, 1000 to 5000 nM. The IC50 at CSF1R [2] is 200 to 500 nM; in the assay with M-NFS-60 cells it was above 1500 nM.
For `COc1cc2ncn(Cc3ccc4nc(NCc5ccccc5)sc4c3)c2cc1OC` [Example 13, N-benzyl-6-((5,6-dimethoxy-1H-benzo[d]imidazol-1-yl)methyl)benzo[d]thiazol-2-amine], the Kd on PDGFRβ lay in the range of 50 to 500 nM; on KIT, 100 to 500 nM; at CSF1R [1], 5 to 20 nM; on FLT3, 1000 to 5000 nM. For the same molecule, the IC50 on CSF1R [2] fell in the range of 50 to 200 nM; in the assay with M-NFS-60 cells it was 400 to 1500 nM.
`COc1cc2ncn(Cc3ccc4nc(NCCN5CCOCC5)sc4c3)c2cc1OC` [Example 14, 6-((5,6-dimethoxy-1H-benzo[d]imidazol-1-yl)methyl)-N-(2-morpholinoethyl)benzo[d]thiazol-2-amine]: the Kd at PDGFRβ was 500 to 2000 nM; on KIT it was above 2000 nM; on CSF1R [1], above 50 nM; at FLT3 it was 1000 to 5000 nM. The results for the IC50 at CSF1R [2] and in the assay on M-NFS-60 cells were above 500 nM and above 1500 nM, respectively.
Consider `COc1cc2ncn(Cc3ccc4nc(NC5CCOCC5)sc4c3)c2cc1OC` [Example 15, 6-((5,6-dimethoxy-1H-benzo[d]imidazol-1-yl)methyl)-N-(tetrahydro-2H-pyran-4-yl)benzo[d]thiazol-2-amine], for which the Kd at PDGFRβ is above 2000 nM; on KIT it was 500 to 2000 nM; at CSF1R [1] it was 20 to 50 nM; on FLT3, above 5000 nM. Moreover, the IC50 was 200 to 500 nM on CSF1R [2] and above 1500 nM with M-NFS-60 cells.
Consider `COc1cc2ncn(Cc3ccc4nc(N(C)C5CCCCC5)sc4c3)c2cc1OC` [Example 16, N-cyclohexyl-6-((5,6-dimethoxy-1H-benzo[d]imidazol-1-yl)methyl)-N-methylbenzo[d]thiazol-2-amine], for which the Kd at PDGFRβ lay in the range of 500 to 2000 nM; at KIT, 100 to 500 nM; on CSF1R [1], 20 to 50 nM; on FLT3, 200 to 1000 nM. Further, the figures for the IC50 on CSF1R [2] and in the assay on M-NFS-60 cells were 200 to 500 nM and above 1500 nM, respectively.
